Source: patent publication US20230146923A1, “COMPOSITIONS AND METHODS FOR INHIBITION AND TARGETING OF P97” (California Institute of Technology, priority 2021, published 2023)
Where a SMILES comes first, the peptide text is derived from it. The star is where a group is joined. Cbz = O=C(OCc1ccccc1)*

Legend:
Assay type in all cases: cell-based
E2F1 [1] = assay: E2F1 levels by qPCR and western blot; conditions: HCT116, 6 h
Experimental: FIGS. 11A-11B show the effect of p97 inhibitors and MG132 on E2F1 expression in HCT116 cells. […] For both qPCR and western blot assays, HCT116 cells were treated for 6 h with DMSO, 1 μM of MG132 (MG), 2 μM of CB-5083 (CB) or 4 μM of NMS-873 (NMS), n=2, **** indicates p<0.0001, *** indicates p<0.001, * indicates p<0.05 according to unpaired t-test.
To determine if the decreased expression of E2F1 target genes was caused by the downregulation of E2F1 levels due to ER stress, qPCR and western blot were used to evaluate E2F1 levels. […] The transcriptional activity of E2F1 can also be repressed through the formation of a complex with the tumor suppressor protein retinoblastoma (RB1) (FIG. 10B). Hyperphosphorylation of RB1 by cyclin-D-cyclin-dependent kinase 4/6 complex (CCND1-CDK4/6) inactivates RB1 and induces the release of the E2F1 from the complex. The newly released E2F1 leads to transcriptional activation of target genes. […] This downregulation of CCND1 and CDK4 was further confirmed by western blot (FIG. 10D). […] Furthermore, the downregulation of CCND1 occurred after the upregulation of ATF3 (FIG. 10F). ATF3 is a stress-inducible gene, which binds to the cyclin D1 promoter and represses its transcription. Therefore, the upregulation of ATF3 potentially contribute to the downregulation of CCND1.

HCT116 cells [2] = assay: Cell cycle analysis (DNA content); conditions: HCT116, 24 h; 1 μM MG132, 2 μM CB-5083
Experimental: FIG. 7A depicts cell cycle analysis of HCT116 cells after 24 h of treatments with DMSO, 1 μM of MG132 (MG) or 2 μM of CB-5083. […] Data were from TMT labeling proteomics. M, C and N indicates MG132, CB-5083 and NMS-873 treatment, respectively. […] HCT116 cells were treated for 24 h with DMSO, 1 μM of MG132 (MG), 2 μM of CB-5083 (CB) or 4 μM of NMS-873 (NMS), n=3.

Securin = Securin degradation (CHX chase) in HCT116 cells; conditions: HCT116, 1 μM MG132, 50 μM CHX
Experimental: (§1) The concentration of MG132, CB-5083 and Baf A1 was 1 μM, 2 μM and 10 μM, respectively. […] FIGS. 13D-13E depict the half-life of Securin in HCT116 cells. HCT116 cells were treated with 1 μM of MG132, 2 μM of CB-5083, 1 μM of MG132 plus 2 μM of CB-5083 or DMSO. […] Cells were pretreated with […] for 1 h. […] For FIGS. 13B-13G, D, B, M, C and N represents DMSO, Baf A1, MG132, CB-5083 and NMS-873, respectively. Data are shown as mean±SD. Statistical analysis was performed using one-way ANOVA.

HCT116 cells [3] = assay: qRT-PCR analysis of ATF3, DHFR and CCND1 RNAs; conditions: HCT116, qPCR
Experimental: (§2) FIGS. 10A-10F depicts p97 inhibition impairs the transcriptional activity of E2F1 by downregulating the CCND1/CDK complex. […] Data was analyzed using the g:Profiler website. Shading indicates the gene is a potential target of transcription factor c-Myb or E2F1. Blank indicates it is not a target gene. FIG. 10B depicts known regulatory network of the CCND1/CDK/RB1/E2F1 pathway. […] HCT116 cells were treated with 1 μM MG132, 2 μM CB-5083 or 4 μM of NMS-874 for 6 h. FIGS. 10E and 10F show transcriptional activity of E2F1 measured using E2F1 reporter assay. HCT116 cells were transfected with pGL2-AN plasmid (Addgene: 20950) for 24 h. Then cells were plated in 384 well plate and incubated for 16 h. The luminescence were detected after 8 h treatment with MG132, CB-5083 or NMS-873. Data are shown as mean±SD, n=3. f, qRT-PCR analysis of ATF3, DHFR and CCND1 RNAs following treatment with MG132, CB-5083 or NMS-874. HCT116 cells were treated for 2, 6 and 24 h using the same concentration as proteomic and western blot assay (n=4).
(§3) To determine if the decreased expression of E2F1 target genes was caused by the downregulation of E2F1 levels due to ER stress, qPCR and western blot were used to evaluate E2F1 levels. […] The transcriptional activity of E2F1 can also be repressed through the formation of a complex with the tumor suppressor protein retinoblastoma (RB1) (FIG. 10B). […]

HCT116 cells [4] = assay: Western blot of E2F1 related proteins and phos-4EBP1
Experimental: FIGS. 9B-9C show network of E2F1 (FIG. 9B) and cMyb (FIG. 9C).
as §2
To investigate whether the protein translation was inhibited by p97 or proteasome inhibitor, the phosphorylation state of eukaryotic translation initiation factor 4E-binding protein 1 (4E-BP1) was examined. Phosphorylation of 4E-BP1 serves to increase total protein translation. […] The effect of p97 inhibition on specific protein levels arises from a change in transcript levels. To examine how transcript levels might be affected, potential transcription factor binding sites (TFBSs) in the promoters of these 33 genes in the TRANSFAC database were examined. […] By examining protein-protein interaction networks related to E2F1 and MYB in the STRING database, 11 E2F1 interactors were found (FIG. 9B) and 11 MYB interactors (FIG. 9C). […] Therefore it was determined to further investigate the role of E2F1, rather than MYB, in cells responding to p97 and proteasome inhibition.
It was hypothesized that CCND1 and CDK4/6 upregulation by MG132 promotes RB1 hyperphosphorylation.

cyclin D1 = assay: Cyclin D1 level and degradation (co-treatment, CHX chase)
Experimental: FIGS. 12A-12C depicts Western blots detecting the effects of p97 inhibitors and MG132 on cell cycle proteins in HT29 and HCT116 cells. […] Then, 50 μM of CHX was added and cells were collected at 0 h, 0.5 h, and 1 h. FIG. 12C depicts half-life of cyclin D1 in HCT116 cells. HCT116 cells were pre-treated with 5 μM of CB-5083 or DMSO for 30 minutes before adding 50 μM of CHX, and cells were collected at 0, 10, 20, 30 min (n=3), * indicates p<0.05 according to unpaired t-test.
as §1
Cells were co-treated with CB-5083 and either the proteasome inhibitor MG132 or the autophagy inhibitor Bafilomycin A1 (Baf A1).

E2F1 [5] = assay: E2F1 reporter assay; conditions: HCT116 transfected with pGL2-AN plasmid, 8 h treatment, luminescence
Experimental: as §2, §3

SMILES: CC(C)C[C@@H](C=O)NC(=O)[C@H](CC(C)C)NC(=O)[C@H](CC(C)C)NC(=O)OCc1ccccc1 [MG132] (Cbz-Leu-Leu-Leu-aldehyde)
- E2F1 RNA levels (E2F1 [1]; qPCR, 1 μM MG132, 2 μM CB-5083, 4 μM NMS-873): strongly downregulated
- Protein level of E2F1 (E2F1 [1]; western blot): increased
- Distribution of cells in the G0/G1 phase (HCT116 cells [2]): reduced distribution in the G0/G1 phase
- Securin protein degradation from the cytosol and nucleus (Securin): blocked
- mRNA levels of the E2F1 target gene DHFR (HCT116 cells [3]): reducing the mRNA level of DHFR
- Phosphorylation of RB1 (HCT116 cells [4]; HCT116, 6 h, western blot): reduced phosphorylation of RB1
- Global protein translation (phosphorylation state of 4E-BP1) (HCT116 cells [4]; HCT116, 6 h of treatments): inhibit global protein translation
- p21 (CDKN1A) level (HCT116 cells [4]; HCT116, TMT and western blot): significantly upregulated
- Cyclin D1 turnover in cytosol and nucleus (cyclin D1; HCT116, 50 μM CHX): blocked
- Effect on CB-5083 mediated cyclin D1 downregulation (co-treatment) (cyclin D1; HCT116, 6 hours, MG132 1 μM, CB-5083 2 μM, Baf A1 10 μM): rescued CB-5083 mediated cyclin D1 downregulation at the protein level but not at the mRNA level
- Transcriptional activity of E2F1 (E2F1 [5]): reduce the transcriptional activity of E2F1
